The experiment addresses T1, mGlyT-1b (Mus musculus, UniProt P28571).
T1 construct: host or cells: Flp-in-CHO
T1 sequence (P28571 1-651 isoform P28571-2): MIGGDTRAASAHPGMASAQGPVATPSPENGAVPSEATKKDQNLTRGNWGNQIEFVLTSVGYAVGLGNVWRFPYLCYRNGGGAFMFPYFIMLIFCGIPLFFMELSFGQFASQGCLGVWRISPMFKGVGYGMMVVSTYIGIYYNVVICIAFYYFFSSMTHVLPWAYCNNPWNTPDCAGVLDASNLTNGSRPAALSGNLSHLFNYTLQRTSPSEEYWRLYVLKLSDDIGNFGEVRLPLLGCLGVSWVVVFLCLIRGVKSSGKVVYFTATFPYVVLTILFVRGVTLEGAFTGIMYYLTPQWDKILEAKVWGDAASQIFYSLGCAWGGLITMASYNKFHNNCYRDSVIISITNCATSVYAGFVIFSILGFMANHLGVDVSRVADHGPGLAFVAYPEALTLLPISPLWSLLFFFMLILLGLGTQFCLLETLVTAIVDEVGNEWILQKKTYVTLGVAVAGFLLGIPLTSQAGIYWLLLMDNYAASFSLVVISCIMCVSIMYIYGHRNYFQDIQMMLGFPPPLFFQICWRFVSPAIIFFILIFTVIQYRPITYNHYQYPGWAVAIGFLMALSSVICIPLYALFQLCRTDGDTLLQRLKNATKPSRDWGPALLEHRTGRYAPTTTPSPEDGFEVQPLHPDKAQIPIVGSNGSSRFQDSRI
The experiment is described as follows: Glycine Uptake Inhibition Assay (mGlyT-1b). Type of experiment: cell-based. As to the method:
DMEM complete medium: Nutrient mixture F-12 (Gibco Life-technologies), fetal bovine serum (FBS) 5%, (Gibco life technologies), Penicillin/Streptomycin 1% (Gibco life technologies), Hygromycin 0.6 mg/ml (Gibco life technologies), Glutamine 1 mM Gibco life technologies)
Uptake buffer (UB): 150 mM NaCl, 10 mM Hepes-Tris, pH 7.4, 1 mM CaCl2, 2.5 mM KCl, 2.5 mM MgSO4, 10 mM (+) D-glucose.
Flp-in™-CHO (Invitrogen Cat n° R758-07) cells stably transfected with mGlyT1b cDNA.
Glycine Uptake Inhibition Assay (mGlyT-1b)
On day 1 mammalian cells, (Flp-in™-CHO), transfected with mGlyT-1b cDNA, were plated at the density of 40,000 cells/well in complete F-12 medium, without hygromycin in 96-well culture plates. On day 2, the medium was aspirated and the cells were washed twice with uptake buffer (UB). The cells were then incubated for 20 min at 22° C. with either (i) no potential competitor, (ii) 10 mM non-radioactive glycine, (iii) a concentration of a potential inhibitor. A range of concentrations of the potential inhibitor was used to generate data for calculating the concentration of inhibitor resulting in 50% of the effect (e.g. IC50, the concentration of the competitor inhibiting glycine uptake of 50%). A solution was then immediately added containing [^3H]-glycine 60 nM (11-16 Ci/mmol) and 25 μM non-radioactive glycine. The plates were incubated with gentle shaking and the reaction was stopped by aspiration of the mixture and washing (three times) with ice-cold UB. The cells were lysed with scintillation liquid, shaken 3 hours and the radioactivity in the cells was counted using a scintillation counter.

Our source for the IC50 values is patent publication US7589089B2, “Inhibitors for GlyT-1” (Hoffmann-La Roche Inc., priority 2006, dated 2009).

One may read the IC50 as the concentration that inhibits the measured activity by half. On to `O=C(CN(Cc1ccccc1Cl)C(=O)c1ccc(Cl)cc1)Nc1cccc(C(F)(F)F)c1` [Example 53, 4-Chloro-N-(2-chloro-benzyl)-N-[(3-trifluoromethyl-phenylcarbamoyl)-methyl]-benzamide], for which half-maximal inhibition (IC50) was put at 241 nM. Regarding `O=C(CN(Cc1ccccc1Cl)C(=O)c1ccc(Cl)cc1)Nc1ccc(F)c(Cl)c1` [Example 74, 4-Chloro-N-(2-chloro-benzyl)-N-[(3-chloro-4-fluoro-phenylcarbamoyl)-methyl]-benzamide], half-maximal inhibition (IC50) was put at 142 nM.

Take `N#Cc1cccc(CN(CC(=O)Nc2cccc(Cl)c2)C(=O)c2ccc(Cl)cc2)c1` [Example 100, 4-Chloro-N-[(3-chloro-phenylcarbamoyl)-methyl]-N-(3-cyano-benzyl)-benzamide]: it took 192 nM to reach half-maximal inhibition (IC50). In turn, `O=C(CN(C(=O)c1cc2ccccc2s1)c1ccccc1)Nc1ccc(Cl)c(Cl)c1` [Example 113, Benzo[b]thiophene-2-carboxylic acid [(3,4-dichloro-phenylcarbamoyl)-methyl]-phenyl-amide] had an IC50 of 150 nM. To `COc1ccccc1CN(CC(=O)Nc1cccc(Cl)c1)C(=O)c1ccc(Cl)cc1` [Example 102, 4-Chloro-N-[(3-chloro-phenylcarbamoyl)-methyl]-N-(2-methoxy-benzyl)-benzamide] belongs 60 nM; to `Cc1cccc(CN(CC(=O)Nc2cccc(Cl)c2)C(=O)c2ccc(Cl)cc2)c1` [Example 103, 4-Chloro-N-[(3-chloro-phenylcarbamoyl)-methyl]-N-(3-methyl-benzyl)-benzamide], 142 nM. `COc1ccc(C(=O)N(CC(=O)Nc2cccc(Cl)c2)Cc2c(Cl)cccc2Cl)cc1` [Example 19, N-[(3-Chloro-phenylcarbamoyl)-methyl]-N-(2,6-dichloro-benzyl)-4-methoxy-benzamide] gave an IC50 of 164 nM. For the molecule `N#Cc1ccc(C(=O)N(CC(=O)Nc2ccc(F)c(Cl)c2)Cc2cccc(F)c2F)cc1` [Example 85, N-[(3-Chloro-4-fluoro-phenylcarbamoyl)-methyl]-4-cyano-N-(2,3-difluoro-benzyl)-benzamide], the IC50 was determined as 123 nM.

In the case of `COc1ccc(C(=O)N(CC(=O)Nc2ccc(Cl)c(Cl)c2)c2ccccc2F)cc1` [Example 21, N-[(3,4-Dichloro-phenylcarbamoyl)-methyl]-N-(2-fluoro-phenyl)-4-methoxy-benzamide], the IC50 worked out at 315 nM. In turn, `O=C(CN(Cc1ccccc1F)C(=O)c1ccc(Cl)nc1)Nc1cccc(Cl)c1` [Example 120, 6-Chloro-N-[(3-chloro-phenylcarbamoyl)-methyl]-N-(2-fluoro-benzyl)-nicotinamide] had an IC50 of 182 nM.

Turning to `O=C(CN(Cc1ccccc1)C(=O)c1ccc(F)cc1)Nc1cccc(Cl)c1` [Example 15, N-Benzyl-N-[(3-chloro-phenylcarbamoyl)-methyl]-4-fluoro-benzamide], the IC50 worked out at 312 nM. `O=C(CN(Cc1ccccc1Cl)C(=O)c1cc2ccccc2s1)Nc1cccc(C(F)(F)F)c1` [Example 51, Benzo[b]thiophene-2-carboxylic acid (2-chloro-benzyl)-[(3-trifluoromethyl-phenylcarbamoyl)-methyl]-amide] returned an IC50 of 60 nM. Molecule `O=C(CN(Cc1ccccc1Cl)C(=O)c1ccc(OC(F)(F)F)cc1)Nc1cccc(F)c1` [Example 60, N-(2-Chloro-benzyl)-N-[(3-fluoro-phenylcarbamoyl)-methyl]-4-trifluoromethoxy-benzamide] came in with an IC50 of 107 nM. The result for `O=C(CN(Cc1ccccc1)C(=O)c1ccc(Cl)cc1)Nc1cccc(Cl)c1` [Example 16, N-Benzyl-4-chloro-N-[(3-chloro-phenylcarbamoyl)-methyl]-benzamide] reads 156 nM; that for `COc1ccc(C(=O)N(CC(=O)Nc2cccc(Cl)c2)c2ccccc2)cc1` [Example 28, N-[(3-Chloro-phenylcarbamoyl)-methyl]-4-methoxy-N-phenyl-benzamide], 267 nM. `COc1ccc(C(=O)N(CC(=O)Nc2cccc(Cl)c2)Cc2c(F)cccc2F)cc1` [Example 11, N-[(3-Chloro-phenylcarbamoyl)-methyl]-N-(2,6-difluoro-benzyl)-4-methoxy-benzamide]: the IC50 came to 100 nM. To `O=C(CN(Cc1cc(F)cc(F)c1)C(=O)c1ccc(Cl)cc1)Nc1cccc(Cl)c1` [Example 3, 4-Chloro-N-[(3-chloro-phenylcarbamoyl)-methyl]-N-(3,5-difluoro-benzyl)-benzamide] belongs 184 nM. To `COc1ccc(C(=O)N(CC(=O)Nc2ccc(Cl)c(Cl)c2)Cc2cccs2)cc1` [Example 18, N-[(3,4-Dichloro-phenylcarbamoyl)-methyl]-4-methoxy-N-thiophen-2-ylmethyl-benzamide] belongs 257 nM. With `N#Cc1ccc(C(=O)N(CC(=O)Nc2cccc(F)c2)Cc2ccccc2Cl)cc1` [Example 62, N-(2-Chloro-benzyl)-4-cyano-N-[(3-fluoro-phenylcarbamoyl)-methyl]-benzamide], the IC50 worked out at 357 nM.

In turn, `O=C(CN(Cc1ccccc1Cl)C(=O)c1ccc(OC(F)(F)F)cc1)Nc1ccc(F)c(Cl)c1` [Example 75, N-(2-Chloro-benzyl)-N-[(3-chloro-4-fluoro-phenylcarbamoyl)-methyl]-4-trifluoromethoxy-benzamide] had an IC50 of 259 nM. `COc1ccc(C(=O)N(CC(=O)Nc2ccc(F)c(Cl)c2)c2ccccc2)cc1` [Example 108, N-[(3-Chloro-4-fluoro-phenylcarbamoyl)-methyl]-4-methoxy-N-phenyl-benzamide] returned a half-inhibitory concentration (IC50) of 182 nM. The result for `O=C(CN(Cc1cccc(F)c1F)C(=O)c1ccc(Cl)cc1)Nc1cccc(Cl)c1` [Example 4, 4-Chloro-N-[(3-chloro-phenylcarbamoyl)-methyl]-N-(2,3-difluoro-benzyl)-benzamide] reads 74 nM. `O=C(CN(Cc1c(F)cccc1F)C(=O)c1ccc(F)cc1)Nc1ccc(F)c(Cl)c1` [Example 78, N-[(3-Chloro-4-fluoro-phenylcarbamoyl)-methyl]-N-(2,6-difluoro-benzyl)-4-fluoro-benzamide] displayed an IC50 of 282 nM. The result for `N#Cc1ccc(C(=O)N(CC(=O)Nc2ccc(F)c(Cl)c2)Cc2ccccc2Cl)cc1` [Example 77, N-(2-Chloro-benzyl)-N-[(3-chloro-4-fluoro-phenylcarbamoyl)-methyl]-4-cyano-benzamide] reads 182 nM.

In the case of `O=C(CN(Cc1cc(F)cc(F)c1)C(=O)c1ccc(OC(F)(F)F)cc1)Nc1ccc(F)c(Cl)c1` [Example 90, N-[(3-Chloro-4-fluoro-phenylcarbamoyl)-methyl]-N-(3,5-difluoro-benzyl)-4-trifluoromethoxy-benzamide], the IC50 was determined as 288 nM. Molecule `COc1ccc(C(=O)N(CC(=O)Nc2ccc(Cl)c(Cl)c2)c2cccc(Cl)c2)cc1` [Example 117, N-(3-Chloro-phenyl)-N-[(3,4-dichloro-phenylcarbamoyl)-methyl]-4-methoxy-benzamide] came in with an IC50 of 210 nM.

In turn, `COc1ccc(C(=O)N(CC(=O)Nc2ccc(C)c(Cl)c2)c2ccccc2)cc1` [Example 110, N-[(3-Chloro-4-methyl-phenylcarbamoyl)-methyl]-4-methoxy-N-phenyl-benzamide] had an IC50 of 369 nM. Regarding `O=C(CN(Cc1cccc(F)c1F)C(=O)c1ccc(F)cc1)Nc1ccc(F)c(Cl)c1` [Example 84, N-[(3-Chloro-4-fluoro-phenylcarbamoyl)-methyl]-N-(2,3-difluoro-benzyl)-4-fluoro-benzamide], the IC50 is 178 nM.

In the case of `O=C(CN(Cc1cc(F)ccc1F)C(=O)c1ccc(Cl)cc1)Nc1cccc(Cl)c1` [Example 6, 4-Chloro-N-[(3-chloro-phenylcarbamoyl)-methyl]-N-(2,5-difluoro-benzyl)-benzamide], the IC50 was 165 nM. With `O=C(CN(Cc1ccccc1Cl)C(=O)c1cc2ccccc2s1)Nc1ccc(F)c(Cl)c1` [Example 72, Benzo[b]thiophene-2-carboxylic acid (2-chloro-benzyl)-[(3-chloro-4-fluoro-phenylcarbamoyl)-methyl]-amide], the IC50 was 205 nM. In turn, `N#Cc1cccc(C(=O)N(CC(=O)Nc2ccc(Cl)c(Cl)c2)c2ccccc2)c1` [Example 31, 3-Cyano-N-[(3,4-dichloro-phenylcarbamoyl)-methyl]-N-phenyl-benzamide] showed an IC50 of 350 nM.
